Laboratory results published in US11576905B2, “Topical semisolid composition containing an antimicrobial agent and pirfenidone for the treatment of chronic skin damage” (Excalibur Pharmaceuticals, Inc., priority 2017, dated 2023).

Legend:
COL1α = COL1α gene expression in ulcer tissue biopsies of treated patients; format: in vivo, human; conditions: first month of treatment
TGFβ1 = TGFβ1 gene expression in ulcer tissue biopsies of treated patients; format: in vivo, human; conditions: first month of treatment

In the case of O=C(c1ccc(F)cc1)C1CCN(CCn2c(=O)[nH]c3ccccc3c2=O)CC1 [KTS, Ketanserin], the “Patients showing an increase in COL1α expression” value (COL1α) is reported as 43% and the “Patients showing an increase in TGFβ1 gene expression” value (TGFβ1) is reported as 29%.
